# Measurements as given in patent US6248694A, “Plant growth regulator compositions” (BASF Aktiengesellschaft, priority 1999, dated 2001).
# Assays:
# [1] = pH in water 1 wt. % concentration; format: physicochemical; conditions: 1 wt. % in water
# Excerpt: 5) pH in water 1 wt. % concentration 6.78
# [2] = Hygroscopicity (relative water uptake at 50 and 60% relative humidity in air); format: physicochemical
# Protocol: 4) Hygroscopicity of compound 1.1 in comparison to mepiquat chloride:
# Both compounds were dried to a constant dry weight in vacuum at 40° C. 48 hours. Afterwards approx. 1 g samples (two series of 3 samples each and average values) were stored under 50 and 60% relative humidity in air for 2 and/or 4 weeks. The following results in relative water uptake (wt. % w/w) were found: […]
# [3] = Hygroscopic nature, observation in words; format: physicochemical; conditions: solid dried at 50° C. under reduced pressure
# [4] = Corrosion trial, test series 1 (DIN No. 52168, modified steel plates, 14 days)
# Protocol: (§1) Comparison of (A) mepiquat chloride, with (B) a mixture of mepiquat chloride with disodium octaborate tetrahydrate (Solubor®), and (C) mepiquat pentaborate (compound 1.9) of example 13.
# (§2) The tests of this example were conducted according to the method of DIN (Deutsche Industrie Norm) No. 52168, part 1 of November 1981, but using modified steel plates.
# (§3) The corrosion tests were conducted on the three different formulations prepared as set forth below. Each formulation was tested with the different steel types set forth below.
# (§4) The first formulation, referred to as "mepiquat chloride" in the tables below, was an 8.33% mepiquat chloride aqueous solution (by weight) prepared by diluting a 600 g/l mepiquat chloride preconcentrate. The second formulation, referred to as "mepiquat chloride plus borate salt" in the tables below, was prepared by adding 15 wt. % disodium octaborate tetrahydrate to the same 8.33% aqueous solution of mepiquat chloride as was used in the first formulation.
# (§5) The third formulation, referred to as "mepiquat pentaborate"--in the tables below, was prepared from compound 1.9, example 13 by diluting with water to form a 12% mepiquat pentaborate (wt. %) aqueous solution.
# (§6) All three abovementioned formulations contained equal amounts of the mepiquat cation.
# (§7) One-half liter quantities of each formulation were placed in polyethylene plastic containers (10 cm×10 cm×12 cm (height)). Into each of the containers, two series of steel plate types--12×5 cm^2 (0.2 cm thickness) were inserted.
# (§8) In modification of the mentioned DIN, the steel plates were prepared with an additional oxyacetylene torched area, approximately 5 to 7 mm large, horizontally in the middle of the steel plates.
# (§9) The torched areas were placed below the solution's surface. (The aim of this modification of the test was to simulate a more serious corrosion and endangering situation.)
# (§10) The position of the plates were such that approximately 1/3 of the plates were in air contact. After 14 days the steel plates were examined, washed and cleaned, dried and weighed according to the DIN method above.
# [5] = Corrosion trial, test series 2 (DIN No. 52168, modified steel plates, 14 days)
# Protocol: as §1, §2, §3, §4, §5, §6, §7, §8, §9, §10
# [6] = 50% relative humidity in air, 2 weeks
# [7] = 60% relative humidity in air, 2 weeks
# [8] = 4 weeks at 50% relative humidity in air
# [9] = 4 weeks at 60% relative humidity in air
Compound,pH in water 1 wt. % concentration [1],"Hygroscopicity: water uptake [2, 8] [wt. %]","Hygroscopicity: water uptake [2, 9] [wt. %]",other results
"C[N+]1(C)CCCCC1.O.O.O.O.O.O.OB(O)O.OB(O)O.OB(O)O.OB(O)O.OB(O)O.OB(O)O.OB(O)O.OB(O)O.OB(O)O.[Na+].[O-]B([O-])O [Compound 1.1, N,N-Dimethylpiperidinium sodium decaborate hexahydrate]",6.78,–,–,"Relative water uptake [2, 6]: 4.1 wt. % w/w; Relative water uptake [2, 7]: 7.8 wt. % w/w"
"C[N+]1(C)CCCCC1 [N,N-dimethylpiperidiniumbicarbonate]",–,–,–,Hygroscopic nature of isolated product [3]: extremely hygroscopic
"C[N+]1(C)CCCCC1.[Cl-] [mepiquat chloride, N,N-dimethylpiperidinium chloride, reference compound]",–,–,–,"pH values, end ([4]; ST 37, end): 7.96; pH values, initial ([4]; ST 37, initial): 7.67; appearance of the resulting formulations ([4]; ST 37, test series 1): yellow to orange solution, cloudy, sedimentations; pH values, end ([5]; ST 13, end): 8.34; pH values, initial ([5]; ST 13, initial): 7.67; appearance of the resulting formulations ([5]; ST 13, test series 2): yellow to orange solution, cloudy, sedimentations; Relative water uptake [2, 6]: 52 wt. % w/w; Relative water uptake ([2]; 50% relative humidity in air, 4 weeks): 58 wt. % w/w; Relative water uptake [2, 7]: 71 wt. % w/w; Relative water uptake ([2]; 60% relative humidity in air, 4 weeks): 78 wt. % w/w"
[Dimethylpiperidinium]2^2+ [B12 Na4 O21 ]^2-×20 H2 O [Compound 1.3],–,13.6,28.8,–
[Dimethylpiperidinium]2^2+ [B18 Na2 O29 ]^2-×8 H2 O [Compound 1.2],7.4,5.2,7.0,–
[Dimethylpiperidinium]^+ [B6.4 Na0.3 O10.3 ]^-×4 H2 O [Compound 1.7],–,1.9,4.1,–
[Dimethylpiperidinium]^+ [B8 (NH4)0.3 O12.7 ]^-×4 H2 O [Compound 1.5],6.8,0.4,0.6,–
[Dimethylpiperidinium]^+ [B9 Na0.9 O14.5 ]^-×6H2 O [Compound 1.6],7.1,2.7,9.0,–
